Laboratory results published in the supplement of paper PMC11628255, “Interference of metal ions on the bioluminescent signal of firefly, Renilla, and NanoLuc luciferases in high-throughput screening assays” (Frontiers in Chemistry, 2024).
± gives the standard deviation of the averaged measurements.

test system: firefly luciferase (FLuc); assay: normalised percent inhibition of luminescence (vs positive and negative controls); higher = stronger inhibition; conditions: metal salt concentration 0.1 mM; screening conditions buffer
Procedure: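 Concentration-response (>=11 concentrations) of metal salts on purified FLuc, NLuc or RLuc luminescence in screening (SC) or 100 mM HEPES (H) buffer; salt pre-incubated with enzyme 10 min at RT, read 10 min after substrate. Normalised percent inhibition vs plate positive (PTC-124, isradipine, BTS) and DMSO negative controls; triplicate wells.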

| normalised percent inhibition | Compound |
| --- | --- |
| 24.1 ± 11% | CC#N.CC#N.CC#N.CC#N.F[B-](F)(F)F.[Cu+] [tetrakis(acetonitrile)copper(I) tetrafluoroborate] |

same assay, conditions: metal salt concentration 0.2 mM; screening conditions buffer

| Compound | normalised percent inhibition |
| --- | --- |
| [Cl][Sn][Cl] [tin(II) chloride] | 99.33 ± 0.51% |
| O=S(=O)([O-])[O-].[Fe+2] [iron(II) sulfate] | 28.7 ± 16% |
| O=[N+]([O-])[O-].O=[N+]([O-])[O-].[Zn+2] [zinc nitrate] | 15 ± 18% |
| CC#N.CC#N.CC#N.CC#N.F[B-](F)(F)F.[Cu+] [tetrakis(acetonitrile)copper(I) tetrafluoroborate] | 31.5 ± 16% |

same assay, conditions: metal salt concentration 0.25 mM; 100 mM HEPES buffer

| normalised percent inhibition | Compound |
| --- | --- |
| 100.3 ± 0.23% | CC#N.CC#N.CC#N.CC#N.F[B-](F)(F)F.[Cu+] [tetrakis(acetonitrile)copper(I) tetrafluoroborate] |

same assay, conditions: metal salt concentration 0.5 mM; 100 mM HEPES buffer

| Compound | normalised percent inhibition |
| --- | --- |
| O=[N+]([O-])[O-].O=[N+]([O-])[O-].[Cd+2] [cadmium nitrate] | 100.3 ± 0.68% |
| [Cl][Sn][Cl] [tin(II) chloride] | 11.7 ± 4.4% |
| O=S(=O)([O-])[O-].[Fe+2] [iron(II) sulfate] | 100.2 ± 0.56% |
| O.O.O.O.O.O.O.O=S(=O)([O-])[O-].[Mg+2] [magnesium sulfate] | -19.2 ± 16% |
| O=[N+]([O-])[O-].O=[N+]([O-])[O-].[Pb+2] [lead(II) nitrate] | 100.1 ± 0.72% |
| O=[N+]([O-])[O-].O=[N+]([O-])[O-].[Zn+2] [zinc nitrate] | 100.2 ± 0.33% |
| O=[N+]([O-])[O-].[Ag+] [silver nitrate] | 100 ± 0.68% |
| CC#N.CC#N.CC#N.CC#N.F[B-](F)(F)F.[Cu+] [tetrakis(acetonitrile)copper(I) tetrafluoroborate] | 100.5 ± 0.16% |

same assay, conditions: metal salt concentration 0.5 mM; screening conditions buffer

| Compound | normalised percent inhibition |
| --- | --- |
| [Cl][Sn][Cl] [tin(II) chloride] | 100.6 ± 0.52% |
| O=S(=O)([O-])[O-].[Fe+2] [iron(II) sulfate] | 94.1 ± 5.9% |
| O=[N+]([O-])[O-].O=[N+]([O-])[O-].[Zn+2] [zinc nitrate] | 29.1 ± 5.4% |
| CC#N.CC#N.CC#N.CC#N.F[B-](F)(F)F.[Cu+] [tetrakis(acetonitrile)copper(I) tetrafluoroborate] | 56.9 ± 11% |

same assay, conditions: metal salt concentration 1 mM; 100 mM HEPES buffer

| Compound | normalised percent inhibition |
| --- | --- |
| O=[N+]([O-])[O-].O=[N+]([O-])[O-].[Cd+2] [cadmium nitrate] | 100.3 ± 0.49% |
| [Cl][Sn][Cl] [tin(II) chloride] | 37.6 ± 7.7% |
| O=S(=O)([O-])[O-].[Fe+2] [iron(II) sulfate] | 100.3 ± 0.16% |
| O.O.O.O.O.O.O.O=S(=O)([O-])[O-].[Mg+2] [magnesium sulfate] | -17.2 ± 16% |
| O=[N+]([O-])[O-].O=[N+]([O-])[O-].[Pb+2] [lead(II) nitrate] | 100.4 ± 0.27% |
| O=[N+]([O-])[O-].O=[N+]([O-])[O-].[Zn+2] [zinc nitrate] | 100.1 ± 0.51% |
| O=[N+]([O-])[O-].[Ag+] [silver nitrate] | 99.8 ± 1.1% |
| CC#N.CC#N.CC#N.CC#N.F[B-](F)(F)F.[Cu+] [tetrakis(acetonitrile)copper(I) tetrafluoroborate] | 100.3 ± 0.63% |

same assay, conditions: metal salt concentration 1 mM; screening conditions buffer

| Compound | normalised percent inhibition |
| --- | --- |
| [Cl][Sn][Cl] [tin(II) chloride] | 100.2 ± 0.65% |
| O=S(=O)([O-])[O-].[Fe+2] [iron(II) sulfate] | 99.42 ± 0.97% |
| O=[N+]([O-])[O-].O=[N+]([O-])[O-].[Zn+2] [zinc nitrate] | 46.4 ± 13% |
| CC#N.CC#N.CC#N.CC#N.F[B-](F)(F)F.[Cu+] [tetrakis(acetonitrile)copper(I) tetrafluoroborate] | 99.7 ± 1.5% |

same assay, conditions: metal salt concentration 2.5 mM; 100 mM HEPES buffer

| Compound | normalised percent inhibition |
| --- | --- |
| O=[N+]([O-])[O-].O=[N+]([O-])[O-].[Cd+2] [cadmium nitrate] | 100.3 ± 0.68% |
| [Cl][Sn][Cl] [tin(II) chloride] | 63.9 ± 6.3% |
| O=S(=O)([O-])[O-].[Fe+2] [iron(II) sulfate] | 100.2 ± 0.16% |
| O.O.O.O.O.O.O.O=S(=O)([O-])[O-].[Mg+2] [magnesium sulfate] | -12.5 ± 12% |
| O=[N+]([O-])[O-].O=[N+]([O-])[O-].[Pb+2] [lead(II) nitrate] | 100.5 ± 0.16% |
| O=[N+]([O-])[O-].O=[N+]([O-])[O-].[Zn+2] [zinc nitrate] | 100.4 ± 0.27% |
| O=[N+]([O-])[O-].[Ag+] [silver nitrate] | 100.4 ± 0.49% |
| CC#N.CC#N.CC#N.CC#N.F[B-](F)(F)F.[Cu+] [tetrakis(acetonitrile)copper(I) tetrafluoroborate] | 100.5 ± 0.31% |

same assay, conditions: metal salt concentration 2.5 mM; screening conditions buffer

| Compound | normalised percent inhibition |
| --- | --- |
| [Cl][Sn][Cl] [tin(II) chloride] | 100.4 ± 0.65% |
| O=S(=O)([O-])[O-].[Fe+2] [iron(II) sulfate] | 100.4 ± 0.49% |
| O=[N+]([O-])[O-].O=[N+]([O-])[O-].[Zn+2] [zinc nitrate] | 100.6 ± 1% |
| CC#N.CC#N.CC#N.CC#N.F[B-](F)(F)F.[Cu+] [tetrakis(acetonitrile)copper(I) tetrafluoroborate] | 100.3 ± 0.32% |

same assay, conditions: metal salt concentration 5 mM; 100 mM HEPES buffer

| Compound | normalised percent inhibition |
| --- | --- |
| O=[N+]([O-])[O-].O=[N+]([O-])[O-].[Cd+2] [cadmium nitrate] | 99.3 ± 0.68% |
| [Cl][Sn][Cl] [tin(II) chloride] | 100.7 ± 0.19% |
| O=S(=O)([O-])[O-].[Fe+2] [iron(II) sulfate] | 100.2 ± 0.41% |
| O.O.O.O.O.O.O.O=S(=O)([O-])[O-].[Mg+2] [magnesium sulfate] | 4.85 ± 15% |
| O=[N+]([O-])[O-].O=[N+]([O-])[O-].[Pb+2] [lead(II) nitrate] | 99.63 ± 0.56% |
| O=[N+]([O-])[O-].O=[N+]([O-])[O-].[Zn+2] [zinc nitrate] | 100.2 ± 0.31% |
| O=[N+]([O-])[O-].[Ag+] [silver nitrate] | 100.5 ± 0.56% |
| CC#N.CC#N.CC#N.CC#N.F[B-](F)(F)F.[Cu+] [tetrakis(acetonitrile)copper(I) tetrafluoroborate] | 100.3 ± 0.16% |

same assay, conditions: metal salt concentration 5 mM; screening conditions buffer

| Compound | normalised percent inhibition |
| --- | --- |
| [Cl][Sn][Cl] [tin(II) chloride] | 100.5 ± 0.69% |
| O=S(=O)([O-])[O-].[Fe+2] [iron(II) sulfate] | 101.2 ± 0.28% |
| O=[N+]([O-])[O-].O=[N+]([O-])[O-].[Zn+2] [zinc nitrate] | 100.2 ± 0.28% |
| CC#N.CC#N.CC#N.CC#N.F[B-](F)(F)F.[Cu+] [tetrakis(acetonitrile)copper(I) tetrafluoroborate] | 100.4 ± 0.4% |

same assay, conditions: metal salt concentration 10 mM; screening conditions buffer

| normalised percent inhibition | Compound |
| --- | --- |
| 100.1 ± 0.14% | CC#N.CC#N.CC#N.CC#N.F[B-](F)(F)F.[Cu+] [tetrakis(acetonitrile)copper(I) tetrafluoroborate] |

same assay, conditions: metal salt concentration 20 mM; screening conditions buffer

| normalised percent inhibition | Compound |
| --- | --- |
| 100.2 ± 0.38% | CC#N.CC#N.CC#N.CC#N.F[B-](F)(F)F.[Cu+] [tetrakis(acetonitrile)copper(I) tetrafluoroborate] |
